Source: US10100049B2, “JAK kinase inhibitor compounds for treatment of respiratory disease” (THERAVANCE BIOPHARMA R&D IP, LLC, priority 2015, dated 2018)

Experiment: Dynamic moisture sorption assessment
Assay type: physicochemical
Protocol: Dynamic moisture sorption (DMS) measurement was performed using a VTI atmospheric microbalance, SGA-100 system (VTI Corp., Hialeah, Fla. 33016). A weighed sample was used and the humidity was lowest possible value (close to 0% RH) at the start of the analysis. The DMS analysis consisted of an initial drying step (˜0% RH) for 120 minutes, followed by two cycles of sorption and desorption with a scan rate of 5% RH/step over the humidity range of 5% RH to 90% RH. The DMS run was performed isothermally at 25° C.

Compound: CCc1cc(O)c(F)cc1-c1ccc2c(-c3nc4c([nH]3)CCN(C3CCN(C)CC3)C4)n[nH]c2c1 [crystalline hydrate, Crystalline hydrate of 5-ethyl-2-fluoro-4-(3-(5-(1-methylpiperidin-4-yl)-4,5,6,7-tetrahydro-1H-imidazo[4,5-c]pyridin-2-yl)-1H-indazol-6-yl)phenol]
- weight gain (moisture sorption) (5% to 90% relative humidity, about 25° C.): less than 0.12%
- hygroscopicity (two cycles of sorption and desorption): non-hygroscopic
